Where no end group is shown, it is not given here.
Tests used:
[1] = target: T1, Porcine pancreatic lipase (PL) (Sus scrofa, UniProt P00591); assay: Pancreatic lipase inhibition assay (pNPB substrate, absorbance 405 nm); assay type: biochemical; details: for IC50: pNPB substrate, Tris-HCl pH 7.5, 37°C
T1 construct: purchased Sigma Chemical Co. (St. Louis, MO, USA)
T1 sequence (P00591 1-450): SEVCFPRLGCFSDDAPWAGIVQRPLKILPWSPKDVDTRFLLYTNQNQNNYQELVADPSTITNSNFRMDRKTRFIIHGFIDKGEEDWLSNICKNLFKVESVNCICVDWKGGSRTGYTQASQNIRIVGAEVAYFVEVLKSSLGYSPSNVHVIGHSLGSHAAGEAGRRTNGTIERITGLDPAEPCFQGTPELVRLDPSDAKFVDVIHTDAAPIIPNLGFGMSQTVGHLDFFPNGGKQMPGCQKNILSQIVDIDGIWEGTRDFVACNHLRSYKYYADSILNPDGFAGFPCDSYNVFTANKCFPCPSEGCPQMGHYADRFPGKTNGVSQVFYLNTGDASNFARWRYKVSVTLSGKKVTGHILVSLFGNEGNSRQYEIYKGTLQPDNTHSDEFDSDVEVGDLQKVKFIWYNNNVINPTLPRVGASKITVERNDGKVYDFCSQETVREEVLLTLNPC
Description: Grind small pieces of cod meat into surimi, add alkaline protease, and hydrolyze for 2 h. The enzyme was then inactivated by high temperature and centrifuged. Finally, the supernatant was spray dried to obtain cod peptide (CP). According to the method of Hou et al. ([28]), the PL inhibition test was carried out on the protein hydrolysates, its gel chromatography fraction, and the pure peptides. The sample and PL were dissolved in Tris-HCl buffer (pH = 7.5), and pNPB was dissolved in acetonitrile, and diluted with tris-HCl buffer. Add 100 μL of the sample, 200 μL of Tris-HCl buffer, 150 μL of PL (5 mg/mL) to a 1.5 mL EP tube, incubate at 37°C for 10 min, and then add 150 μL of […] pNPB, shake and mix, and incubate at 37°C for 10 min. After the reaction was completed, the absorbance value at 405 nm was measured with a multifunctional microplate reader, and the PL inhibitory activity was calculated according to the following equation: Inhibition rate (%) = 1- (absorbance in the presence of inhibitor/[…] in negative control) × 100%.

[2] = target: T1, Porcine pancreatic lipase (PL); assay: Assay of PLIs kinetics (reversibility, Lineweaver-Burk plots); assay type: biochemical; details: from slope of Lineweaver-Burk plot vs. peptide concentration; read-out: Ki (competitive inhibition constant)
Description: According to the method reported in the previous literature, with a slight modification, the type of inhibition of PL by active peptides was determined ([29], [30]). The peptide (0.8 mg/mL, final concentration) was reacted with different concentrations (0, 5, 10, 15, 20 mg/mL) of PL for 10 min, then 10 mM pNPB was added for 10 min. the absorbance of the reaction system at a wavelength of 405 nm was measured to determine the reversibility of the reaction. Next, the optimal PL concentration (5 mg/mL) and peptide (0, 0.8 mg/mL, final concentration) were fixed, and pNPB with different concentrations (1, 2, 3, 4, and 5 mM) was added to react for 10 min, a value was measured every 30 s, and the wavelength was 405 nm. The Lineweaver-Burk double reciprocal curve was used to determine the maximum velocity (Vmax) and Michaelis–Menten constant (Km). The slope and y-intercept of the Lineweaver-Burk plot vs. peptide concentration give a straight line with the intercepts on the horizontal axis as Ki (competitive inhibition constant) and K'i values (uncompetitive inhibition constant), respectively.

Row | Substance | IC50 [1] | Ki [2] | remaining activity at 6000 µg/mL ([1]; peptide concentration 6 mg/mL, read-out: residual activity on PL)
1 | GSPPPSG [GSPPPSG] | 1000 µM | 4190 µM | 
2 | KLEGDLK [KLEGDLK] | 1350 µM | 1400 µM | ~10%
